pIC50: −log10 of the molar value. Values joined by “and” are separate entries in the source; they are usually repeats but may differ in a detail not shown here. Identical values can stand only once.
Assays:
[1] = test system: SCC-9 (human oral squamous cell carcinoma); assay: Cytotoxic activity, alamar blue assay, SCC-9; assay type: cell-based; conditions: Homo sapiens; SCC-9, 72h of incubation, alamar blue; with 95% confidence interval
From the text: (§1) HCT116 (human colon carcinoma), HepG2 (human hepatocellular carcinoma), HSC-3 (human oral squamous cell carcinoma), SCC-4 (human oral squamous cell carcinoma), SCC-9 (human oral squamous cell carcinoma), HL-60 (human promyelocytic leukemia), K-562 (human chronic myelogenous leukemia), B16-F10 (murine melanoma), MRC-5 (human lung fibroblast), WT SV40 MEF (wild-type immortalized mouse embryonic fibroblast) and BAD KO SV40 MEF (BAD gene knockout immortalized mouse embryonic fibroblast) cell lines were obtained from the American Type Culture Collection (ATCC, Manassas, VA, USA) and cultured in RPMI-1640 medium (Gibco-BRL, Gaithersburg, MD, USA) with 10% fetal bovine serum (Life, Carlsbad, CA, USA), 2 mM L-glutamine (Vetec Química Fina, Duque de Caxias, RJ, Brazil) and 50 μg/mL gentamycin (Life, Carlsbad, CA, USA). Adherent cells were collected by treatment with 0.25% trypsin EDTA solution (Gibco-BRL, Gaithersburg, MD, USA). All cell lines were cultured in flasks at 37°C in 5% CO2 and sub-cultured every 3-4 days to maintain exponential growth.
(§2) Cell viability was quantified using the alamar blue assay, according to Ahmed et al.. Cells were inserted in 96-well plates for all experiments (7 x 10^4 cells/mL for adherent cells or 3 x 10^5 cells/mL for suspended cells in 100 μL of medium). […] Negative controls received the vehicle that was used for diluting the compounds tested.

HCT116 cells [2] = assay: Internucleosomal DNA fragmentation and cell cycle distribution (DNA content, flow cytometry); assay type: cell-based, human; conditions: HCT116, 1 μM, mean ± S.E.M.
Description: Cells were harvested in a permeabilization solution containing 0.1% triton X-100 (Sigma Chemical Co. St Louis, MO, USA), 2 μg/mL propidium iodide (Sigma Chemical Co. St Louis, MO, USA), 0.1% sodium citrate and 100 μg/mL RNAse (Sigma Chemical Co. St Louis, MO, USA) and incubated in the dark for 15 min at room temperature.

[3] = test system: BAD KO SV40 MEF (BAD gene knockout immortalized mouse embryonic fibroblast); assay: Cytotoxic activity, alamar blue assay, BAD KO SV40 MEF; assay type: cell-based; conditions: Mus musculus, Fibroblast; BAD KO SV40 MEF, 72 h incubation, alamar blue; read-out: IC50
From the text: as §1, §2

HCT116 cells [4] = assay: Gene expression analysis by qPCR array (TaqMan Array Human Molecular Mechanisms of Cancer); assay type: cell-based; conditions: HCT116, 12 h, DOX 1 μM, PL 10 μM, 1 2.5 μM, 2 5 μM, negative control RQ = 1.0
Description: HCT116 cells were plated in bottles tissue culture (7x10^4 cells/mL). After 12h of incubation with the complexes, total RNA was isolated from the cells using the RNeasy Plus mini kit (Qiagen, Hilden, Germany) according to the manufacturer’s instructions. The RNA was evaluated by fluorimetry (QuBit™, Life Technologies, Camarillo, CA, EUA). RNA reverse transcription was performed using Superscript VILO™ (Invitrogen Corporation, Waltham, MA, USA). A 96-well plate TaqMan® Array Human Molecular Mechanisms of Cancer (ID 4418806, Applied Biosystems™, Foster City, CA, EUA) was used for the gene expression study by qPCR. The reactions were conducted in the ABI ViiA7 (Applied Biosystems™, Foster City, CA, EUA). The cycle conditions comprised 2 min at 50 °C, 20 s at 95 °C, then 40 cycles of 3 s at 95 °C and 30 s at 60 °C. […] The GAPDH, 18S and HPRT1 genes were used for normalization. All experiments were performed in DNase/RNase free conditions.

SMILES: COc1cccc2c1C(=O)c1c(O)c3c(c(O)c1C2=O)C[C@@](O)(C(=O)CO)C[C@@H]3O[C@H]1C[C@H](N)[C@H](O)[C@H](C)O1 [Doxorubicin]
- pIC50 [1]: 5.59
- DNA content (%) G0/G1 (HCT116 cells [2]; 24h): 22.1 ± 2.4%
- DNA content (%) G2/M (HCT116 cells [2]; 24h): 59.0 ± 2.8 %
- DNA content (%) Sub-G0/G1 (HCT116 cells [2]; 24h): 5.2 ± 1.4%
- DNA content (%) G0/G1 (HCT116 cells [2]; 48h): 15.8 ± 2.0 %
- DNA content (%) G2/M (HCT116 cells [2]; 48h): 49.0 ± 5.9 %
- DNA content (%) Sub-G0/G1 (HCT116 cells [2]; 48h): 21.8 ± 5.4 %
- pIC50 [3]: 6.39
- RQ ABL1 (HCT116 cells [4]): 0.912
- RQ AKT1 (HCT116 cells [4]): 1.840
- RQ AKT2 (HCT116 cells [4]): 3.877
- RQ APC (HCT116 cells [4]): 0.908
- RQ BAX (HCT116 cells [4]): 3.274
- RQ BCAR1 (HCT116 cells [4]): 1.809
- RQ BCL2L1 (HCT116 cells [4]): 2.391
- RQ BCL2L11 (HCT116 cells [4]): 1.152
- RQ BID (HCT116 cells [4]): 1.757
- RQ BRAF (HCT116 cells [4]): 0.513
- RQ CASP9 (HCT116 cells [4]): 0.530
- RQ CCND3 (HCT116 cells [4]): 1.438
- RQ CCNE1 (HCT116 cells [4]): 0.894
- RQ CDC42 (HCT116 cells [4]): 1.271
- RQ CDK2 (HCT116 cells [4]): 1.257
- RQ CDK4 (HCT116 cells [4]): 0.983
- RQ CDKN1A (HCT116 cells [4]): 2.853
- RQ CDKN1B (HCT116 cells [4]): 0.766
- RQ CRK (HCT116 cells [4]): 0.867
- RQ CTNNB1 (HCT116 cells [4]): 0.939
- RQ DVL1 (HCT116 cells [4]): 1.252
- RQ E2F1 (HCT116 cells [4]): 1.018
- RQ ELK1 (HCT116 cells [4]): 1.263
- RQ ERBB2 (HCT116 cells [4]): 2.605
- RQ FAS (HCT116 cells [4]): 2.372
- RQ FGF2 (HCT116 cells [4]): 0.625
- RQ GRB2 (HCT116 cells [4]): 0.761
- RQ GSK3B (HCT116 cells [4]): 1.342
- RQ GUSB (HCT116 cells [4]): 5.0
- RQ HRAS (HCT116 cells [4]): 0.691
- RQ ITGB1 (HCT116 cells [4]): 0.489
- RQ ITGB3 (HCT116 cells [4]): 5.579
- RQ KRAS (HCT116 cells [4]): 0.951
- RQ MAPK1 (HCT116 cells [4]): 0.903
- RQ MAPK8 (HCT116 cells [4]): 1.185
- RQ MAPK14 (HCT116 cells [4]): 0.786
- RQ MDM2 (HCT116 cells [4]): 1.479
- RQ MYC (HCT116 cells [4]): 0.876
- RQ NFKB1 (HCT116 cells [4]): 0.784
- RQ NFKB2 (HCT116 cells [4]): 1.250
- RQ NRAS (HCT116 cells [4]): 0.556
- RQ PIK3CA (HCT116 cells [4]): 0.409
- RQ RB1 (HCT116 cells [4]): 0.532
- RQ RELA (HCT116 cells [4]): 0.862
- RQ RHOA (HCT116 cells [4]): 0.900
- RQ SRC (HCT116 cells [4]): 1.383
- RQ TCF3 (HCT116 cells [4]): 1.135
- RQ TGFB1 (HCT116 cells [4]): 0.495
- RQ TGFBR1 (HCT116 cells [4]): 1.216
- RQ VEGFA (HCT116 cells [4]): 0.610
- RQ BCL2 (HCT116 cells [4]; listed as DOX): 3.1 and 3.090
- RQ CCND1 (HCT116 cells [4]; listed as DOX): 1.1 and 1.124
- RQ CDH1 (HCT116 cells [4]; listed as DOX): 7.1 and 7.107
- RQ CDKN2A (HCT116 cells [4]; listed as DOX): 1.8 and 1.793
- RQ CYCS (HCT116 cells [4]; listed as DOX): 1.0 and 0.993
- RQ EGFR (HCT116 cells [4]; listed as DOX): 0.8 and 0.831
- RQ FADD (HCT116 cells [4]; listed as DOX): 1.1 and 1.049
- RQ FN1 (HCT116 cells [4]; listed as DOX): 3.6 and 3.575
- RQ FOS (HCT116 cells [4]; listed as DOX): 11.8 and 11.834
- RQ FYN (HCT116 cells [4]; listed as DOX): 1.3 and 1.248
- RQ FZD1 (HCT116 cells [4]; listed as DOX): 1.0 and 0.994
- RQ IGF1R (HCT116 cells [4]; listed as DOX): 1.4 and 1.389
- RQ ITGA2B (HCT116 cells [4]; listed as DOX): 4.5 and 4.514
- RQ ITGAV (HCT116 cells [4]; listed as DOX): 1.3 and 1.265
- RQ JUN (HCT116 cells [4]; listed as DOX): 4.1 and 4.073
- RQ MAP2K1 (HCT116 cells [4]; listed as DOX): 0.7 and 0.681
- RQ MAP3K5 (HCT116 cells [4]; listed as DOX): 1.0 and 1.006
- RQ MAPK3 (HCT116 cells [4]; listed as DOX): 2.8 and 2.758
- RQ NFKBIA (HCT116 cells [4]; listed as DOX): 2.3 and 2.326
- RQ PIK3R1 (HCT116 cells [4]; listed as DOX): 2.0 and 1.999
- RQ PTEN (HCT116 cells [4]; listed as DOX): 1.8 and 1.750
- RQ PTK2 (HCT116 cells [4]; listed as DOX): 1.2 and 1.182
- RQ PTK2B (HCT116 cells [4]; listed as DOX): 3.4 and 3.368
- RQ RAC1 (HCT116 cells [4]; listed as DOX): 0.9 and 0.845
- RQ RAF1 (HCT116 cells [4]; listed as DOX): 2.0 and 2.027
- RQ SHC1 (HCT116 cells [4]; listed as DOX): 0.6 and 0.640
- RQ SMAD4 (HCT116 cells [4]; listed as DOX): 1.0 and 0.963
- RQ SOS1 (HCT116 cells [4]; listed as DOX): 0.7 and 0.741
- RQ SPP1 (HCT116 cells [4]; listed as DOX): 1.2 and 1.165
- RQ TGFBR2 (HCT116 cells [4]; listed as DOX): 0.9 and 0.914
- RQ TP53 (HCT116 cells [4]; listed as DOX): 3.3 and 3.250

— paper PMC5732813, “Novel piplartine-containing ruthenium complexes: synthesis, cell growth inhibition, apoptosis induction and ROS production on HCT116 cells” (Oncotarget, 2017)
